# Laboratory results published in patent publication US8541407B2 (ArQule, Inc., priority 2010, dated 2013).
# Where a name gives a salt, the structure may show the parent alone.
# Legend:
# AKT1 [1] = molecular target: T1, AKT1 (Homo sapiens (Human), UniProt P31749); experiment: Inactive Akt Alpha Screen Assay; conditions: non *labeled: Akt Alpha Screen assay; read-out: AKT1 biochemical assay, IC50
# Outline: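 AKT1 activated in situ by PDK1, MAPKAPK2, lipid vesicles and ATP, then phosphorylating biotinylated crosstide for 30 min at room temperature. Stopped with 10 mM EDTA; phosphopeptide detected by AlphaScreen using phospho-AKT substrate antibody (1:350), Protein A acceptor and streptavidin donor beads, 90 min dark, ex 640/em 570 nm.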
# IGROV-1 = experiment: MTS Assay, cell proliferation analysis (IGROV-1); format: cell-based; conditions: Homo sapiens; IGROV-1 cells; 72 hours; 10 Percent FBS
# Procedure: (§1) Cell proliferation analysis. Cell survival was determined by the MTS assay. Briefly, cells were plated in a 96-well plate at 2,000-10,000 cells per well, cultured for 24 hours in complete growth medium, and then treated with representative compounds of the invention or combinations thereof for 72 hours. MTS was added and incubated for 4 hours, followed by assessment of cell viability by using the microplate reader at 570 nm. Data were normalized to untreated controls and analyzed.
# A2780 = experiment: MTS Assay, cell proliferation analysis (A2780); format: cell-based; conditions: Homo sapiens; A2780 cells; 72 hours; 10 Percent FBS
# Procedure: as §1
# AN3-CA = experiment: MTS Assay, cell proliferation analysis (AN3-CA); format: cell-based; conditions: Homo sapiens; AN3-CA cells; 72 hours; 10 Percent FBS
# Procedure: as §1
# AKT1 [2] = molecular target: T1, AKT1; experiment: Inactive Akt HTRF Assay (AKT1); conditions: *labeled: Akt HTFR assay; read-out: AKT1 biochemical assay, IC50
# Procedure: AKT1 activity was assayed using CisBio KinEASE™ HTRF Assay technology. This technology utilizes a proprietary biotinylated peptide substrate (STKS3), streptavidin labeled XL665 antibody, and STK antibody-Eu^3+-cryptate. AKT1 activation was achieved by the addition of the activating kinases PDK1 and MAPKAPK2, lipid vesicles, and ATP. The extent of STKS3 biotinylated peptide phosphorylation was determined using a phospho-STK antibody-Eu^3+-cryptate and streptavidin labeled XL665 antibody. XL665 was stimulated by Eu^3+-cryptate resulting in a TR-FRET signal proportional to the STKS3 phosphorylation level.
# Representative compounds of the invention and controls ((S)-1-((5-(3-methyl-1H-indazol-5-yl)pyridin-3-yl)oxy)-3-phenylpropan-2-amine, 1-(1-(4-(7-phenyl-1H-imidazo[4,5-g]quinoxalin-6-yl)benzyl)piperidin-4-yl)-1H-benzo[d]imidazol-2(3H)-one, and 8-(4-(1-aminocyclobutyl)phenyl)-9-phenyl-[1,2,4]triazolo[3,4-f][1,6]naphthyridin-3(2H)-one) were prepared in 10% DMSO at 10-fold the desired final concentration, and added to each well of a reaction plate (Corning 96-well half-area solid black nonbinding surface plate) in a volume of 2.5 μL. […] After a 20 minute pre-incubation at room temperature, the kinase reaction was initiated by the addition of 5 μL of an activation mixture diluted in assay buffer containing biotinylated STKS3, PDK1, MAPKAPK2, DOPS/DOPC, PtdIns(3,4,5)P3, and ATP for final concentrations of 150 nM biotinylated STKS3, 1 nM (AKT1), 2.5 nM (AKT2), or 0.4 nM (AKT3) PDK1, 0.8 nM (AKT1), 2 nM (AKT2), or 0.3 nM (AKT3) MK2, 5.5 μM DOPS, 5.5 μM DOPC, 0.5 μM PtdIns(3,4,5)P3, and 50 μM ATP. The plates were incubated for 30 minutes at room temperature, and then stopped by the addition of 25 μL HTRF Detection Buffer containing phospho-STK antibody-Eu^3+-cryptate and streptavidin labeled XL665 antibody, at dilutions of 1:192 and 1:500 respectively. Final assay dilutions of phospho-STK antibody-Eu^3+-cryptate and streptavidin labeled XL665 antibody were 1:384 and 1:1,000 respectively. Assay plates were incubated for 60 minutes at room temperature, and the plates were read on a Perkin Elmer Envision Multilabel plate reader (excitation: 320 nm, emission I: 665 nm, emission II: 615 nm).
# T1 sequence (P31749 whole entry): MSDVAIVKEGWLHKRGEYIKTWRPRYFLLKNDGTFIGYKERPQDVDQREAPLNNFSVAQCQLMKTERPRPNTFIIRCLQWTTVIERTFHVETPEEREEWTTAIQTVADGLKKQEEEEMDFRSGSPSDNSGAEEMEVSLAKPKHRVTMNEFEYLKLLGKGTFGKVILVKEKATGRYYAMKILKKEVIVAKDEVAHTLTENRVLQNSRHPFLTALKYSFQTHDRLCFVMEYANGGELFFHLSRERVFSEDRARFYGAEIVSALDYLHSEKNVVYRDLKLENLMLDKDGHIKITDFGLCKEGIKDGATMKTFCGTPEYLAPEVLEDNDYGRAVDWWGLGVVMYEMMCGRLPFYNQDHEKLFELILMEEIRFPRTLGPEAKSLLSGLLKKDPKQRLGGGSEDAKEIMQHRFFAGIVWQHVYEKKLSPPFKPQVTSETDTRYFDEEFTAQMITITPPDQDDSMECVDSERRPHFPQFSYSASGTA
IC50 (AKT1 [1]) [µM],IC50 (A2780) [µM],IC50 (AKT1 [2]) [µM],Structure (SMILES),IC50 (IGROV-1) [µM],IC50 (AN3-CA) [µM]
0.1,6,–,"Cc1ccc(C(=O)Nc2ccc(-c3nnc4n3-c3cccnc3Nc3ccccc3-4)cc2)cc1 [Example 30, N-(4-(9H-benzo[f]pyrido[2,3-b][1,2,4]triazolo[4,3-d][1,4]diazepin-3-yl)phenyl)-4-methylbenzamide]",28,7
1.9,9,–,"ClCc1ccc(-c2nnc3n2-c2cccnc2Nc2ccccc2-3)cc1 [Example 127, 3-(4-(chloromethyl)phenyl)-9H-benzo[f]pyrido[2,3-b][1,2,4]triazolo[4,3-d][1,4]diazepine]",13,–
–,–,7.6,"COc1cccc(C(=O)NC2CCN(Cc3ccc(-c4nnc5n4-c4cccnc4Nc4ccccc4-5)cc3)CC2)c1 [Example 215, N-(1-(4-(9H-benzo[f]pyrido[2,3-b][1,2,4]triazolo[4,3-d][1,4]diazepin-3-yl)benzyl)piperidin-4-yl)-3-methoxybenzamide]",–,–
0.11,6,–,"CN(C)c1ccc(C(=O)NCc2ccc(-c3nnc4n3-c3cccnc3Nc3ccccc3-4)cc2)cc1 [Example 98, N-(4-(9H-benzo[f]pyrido[2,3-b][1,2,4]triazolo[4,3-d][1,4]diazepin-3-yl)benzyl)-4-(dimethylamino)benzamide]",> 100,8
0.16,10,–,"COc1cccc(C(=O)Nc2ccc(-c3nnc4n3-c3cccnc3Nc3ccccc3-4)cc2)c1 [Example 27, N-(4-(9H-benzo[f]pyrido[2,3-b][1,2,4]triazolo[4,3-d][1,4]diazepin-3-yl)phenyl)-3-methoxybenzamide]",23,25
0.11,14,–,"O=C(Nc1ccc(-c2nnc3n2-c2cccnc2Nc2ccccc2-3)cc1)c1ccc(F)cc1 [Example 56, N-(4-(9H-benzo[f]pyrido[2,3-b][1,2,4]triazolo[4,3-d][1,4]diazepin-3-yl)phenyl)-4-fluorobenzamide]",70,28
0.44,15,–,"Cc1ccc(NC(=O)NC2CCN(Cc3ccc(-c4nnc5n4-c4cccnc4Nc4ccccc4-5)cc3)CC2)cc1 [Example 168, 1-(1-(4-(9H-benzo[f]pyrido[2,3-b][1,2,4]triazolo[4,3-d][1,4]diazepin-3-yl)benzyl)piperidin-4-yl)-3-(p-tolyl)urea]",–,22
0.12,6,–,"O=C(NCCc1ccc(-c2nnc3n2-c2cccnc2Nc2ccccc2-3)cc1)Nc1ccccc1 [Example 110, 1-(4-(9H-benzo[f]pyrido[2,3-b][1,2,4]triazolo[4,3-d][1,4]diazepin-3-yl)phenethyl)-3-phenylurea]",–,8
–,–,17,"O=C(c1ccc(-c2nnc3n2-c2cccnc2Nc2ccccc2-3)cc1)N1CCNCC1 [Example 209, (4-(9H-benzo[f]pyrido[2,3-b][1,2,4]triazolo[4,3-d][1,4]diazepin-3-yl)phenyl)(piperazin-1-yl)methanone]",–,–
0.34,12,–,"Cc1ccc(S(=O)(=O)NC2(c3ccc(-c4nnc5n4-c4cccnc4Nc4ccccc4-5)cc3)CCC2)cc1 [Example 198, N-(1-(4-(9H-benzo[f]pyrido[2,3-b][1,2,4]triazolo[4,3-d][1,4]diazepin-3-yl)phenyl)cyclobutyl)-4-methylbenzenesulfonamide]",–,17
0.31,16,–,"O=C(NCc1ccc(-c2nnc3n2-c2cccnc2Nc2ccccc2-3)cc1)Nc1ccccc1F [Example 121, 1-(4-(9H-benzo[f]pyrido[2,3-b][1,2,4]triazolo[4,3-d][1,4]diazepin-3-yl)benzyl)-3-(2-fluorophenyl)urea]",–,27

# Further lines, the compound ahead of its results:
Structure (SMILES),IC50 (AKT1 [1]) [µM],IC50 (A2780) [µM],IC50 (AKT1 [2]) [µM],IC50 (IGROV-1) [µM],IC50 (AN3-CA) [µM]
"O=c1[nH]c2ccccc2n1C1CCN(Cc2ccc(-c3nnc4n3-c3ccccc3Nc3ccccc3-4)cc2)CC1 [Example 128, 1-(1-(4-(9H-dibenzo[b,f][1,2,4]triazolo[4,3-d][1,4]diazepin-3-yl)benzyl)piperidin-4-yl)-1H-benzo[d]imidazol-2(3H)-one]",0.94,11,–,> 100,–
"c1ccc(-c2nnc(C3CCN(Cc4ccc(-c5nnc6n5-c5cccnc5Nc5ccccc5-6)cc4)CC3)[nH]2)nc1 [Example 63, 3-(4-((4-(5-(pyridin-2-yl)-4H-1,2,4-triazol-3-yl)piperidin-1-yl)methyl)phenyl)-9H-benzo[f]pyrido[2,3-b][1,2,4]triazolo[4,3-d][1,4]diazepine]",0.084,17,–,10,34
"NC1(c2ccc(-c3nnc4n3-c3cccnc3Nc3ccccc3-4)cc2)CCC1 [Example 126, 1-(4-(9H-benzo[f]pyrido[2,3-b][1,2,4]triazolo[4,3-d][1,4]diazepin-3-yl)phenyl)cyclobutanamine]",0.099,31,–,6,40
"CC(C)(C)OC(=O)NCCc1ccc(-c2nnc3n2-c2cccnc2Nc2ccccc2-3)cc1 [Example 212, tert-butyl 4-(9H-benzo[f]pyrido[2,3-b][1,2,4]triazolo[4,3-d][1,4]diazepin-3-yl)phenethylcarbamate]",–,–,4.3,–,–
"CC(C)(C)OC(=O)N1CCN(C(=O)c2ccc(-c3nnc4n3-c3cccnc3Nc3ccccc3-4)cc2)CC1 [Example 208, tert-butyl 4-(4-(9H-benzo[f]pyrido[2,3-b][1,2,4]triazolo[4,3-d][1,4]diazepin-3-yl)benzoyl)piperazine-1-carboxylate]",–,–,41,–,–
"c1ccc(-n2cc(COCc3ccc(-c4nnc5n4-c4cccnc4Nc4ccccc4-5)cc3)nn2)cc1 [Example 186, 3-(4-(((1-phenyl-1H-1,2,3-triazol-4-yl)methoxy)methyl)phenyl)-9H-benzo[f]pyrido[2,3-b][1,2,4]triazolo[4,3-d][1,4]diazepine]",0.49,3,–,–,4
"O=C(Nc1cccc(C(F)(F)F)c1)NC1CCN(Cc2ccc(-c3nnc4n3-c3cccnc3Nc3ccccc3-4)cc2)CC1 [Example 174, 1-(1-(4-(9H-benzo[f]pyrido[2,3-b][1,2,4]triazolo[4,3-d][1,4]diazepin-3-yl)benzyl)piperidin-4-yl)-3-(3-(trifluoromethyl)phenyl)urea]",0.63,8,–,–,13
"Brc1ccc2c(c1)-c1nnc(-c3ccc(CN4CCC(c5nnc(-c6ccccn6)[nH]5)CC4)cc3)n1-c1cccnc1N2 [Example 228, 12-bromo-3-(4-((4-(5-(pyridin-2-yl)-4H-1,2,4-triazol-3-yl)piperidin-1-yl)methyl)phenyl)-9H-benzo[f]pyrido[2,3-b][1,2,4]triazolo[4,3-d][1,4]diazepine]",0.096,13,–,6,56
CN(C)c1ccc(-c2nnc3n2-c2cccnc2Nc2ccccc2-3)cc1 [hydrochloride],1.6,17,–,90,–
"O=S(=O)(NC1(c2ccc(-c3nnc4n3-c3cccnc3Nc3ccccc3-4)cc2)CCC1)c1ccccc1 [Example 195, N-(1-(4-(9H-benzo[f]pyrido[2,3-b][1,2,4]triazolo[4,3-d][1,4]diazepin-3-yl)phenyl)cyclobutyl)benzenesulfonamide]",0.28,11,–,–,16
"NC1(c2ccc(-c3nnc4n3-c3cccnc3Nc3ccc(Br)cc3-4)cc2)CCC1 [Example 219, 1-(4-(12-bromo-9H-benzo[f]pyrido[2,3-b][1,2,4]triazolo[4,3-d][1,4]diazepin-3-yl)phenyl)cyclobutanamine]",0.13,16,–,10,45
